Assays:
[1] = test system: fragile X transgenic mice; assay: Synapses in fragile X transgenic mice; format: in vivo; details: 25 μg/kg body weight intraperitoneal twice a week for 3 months
Description: Protocol: Bryostatin (25 μg/kg body weight, intraperitoneal injection) was administered to 2 month old fragile X transgenic mice twice a week for 3 months. […] Non-treated groups (WC and TC) received the same vehicle volumes, mechanism of delivery, and frequency of administration as the treated groups.

human neprilysin [2] = assay: Neprilysin activity in SH+hNEP cells (fluorometric); format: cell-based; details: 1 nM for 15 min to 3 hours; 0.27, 0.5, 1, or 2 nM for 1 hr (FIG. 32)
Description: Protocol: Intact SH+hNEP cells were incubated in the absence or presence of bryostatin (1 nM) for 15 min, 30 min, 1 hour, or 3 hours. Cells were then lysed and neprilysin activity was measured. 50 μg of total lysates were separately incubated with 0.5 mM glutaryl-Ala-Ala-Phe-4-methoxy-2-naphthylamide as a substrate. Further incubation with leucine aminopeptidases released free 4-methoxy-2-naphthylamide that was measured fluorometrically at an emission of 425 nm (Mean+SEM of three independent experiments, *P<0.05; **P<0.01, Bryo compared with untreated condition). Intact SH+hNEP cells were incubated in the absence or presence of bryostatin (Bryo) at 0.27, 0.5, 1, or 2 nM concentration for 1 hr, lysed and then neprilysin activity for each condition was fluorometically measured as shown in (A) (Mean+SEM of three independent experiments, *P<0.05; **P<0.01, Bryo compared with untreated condition). Results are shown below in FIG. 32 (A—fluorometric results of free 4-methoxy-2-naphthylamide measured at different time points; B—fluorometric results of free 4-methoxy-2-naphthylamide measured at different concentrations of bryostatin).
Immunoprecipitates were subjected to Western blot analysis using phospho-Ser/Thr or neprilysin antibody (Mean+SEM of three independent experiments, **P<0.01, Bryo compared with untreated; #P<0.01, Ro+Bryo compared with Bryo). […]

cerebral ischemia rats = assay: Retention of spatial learning and memory after cerebral ischemia (training before ischemia); format: in vivo; details: 15 μg/m^2 tail vein, 2 doses/week for 10 doses; second probe test 2 weeks after last dose (FIG. 22)
Description: Protocol: An initial evaluation of the test rats was undertaken to observe their spatial learning (2 trials/day for 6 days) and memory (a probe test of 1 min, 24 hours after the last trial). Cerebral ischemia was induced 1 day after the probe test, followed by bryostatin-1 (15 μg/m^2) administration through a tail vein (2 doses/week, for 10 doses), starting 24 hours after the end of the ischemic (2-VO)/hypoxic event. A second probe test was performed 2 weeks after the last bryostatin-1 dose. Results are shown in A for the spatial water maze performance of the rats over training trials (2 trials/day for 6 days) before the ischemia/treatment (means±SEM.; trials: F11,383=40.483, P<0.001; groups: F3,383=0.315, P>0.05). Results of the probe test after the training trials before the ischemia and/or treatment are shown in B-E (Quadrant 4 was the target quadrant). Results are shown for the target quadrant ratios before (pre-Isch) and after (post-Isch) the ischemia and/or treatment in F. Results are shown in G for the latency of the first crossing the target location before (pre-Isch) and after (post-Isch) the ischemia and/or treatment. There were eight rats/group (Bry—bryostatin-1; Isch.—cerebral ischemia) (*, P<0.05. NS: P>0.05).

[3] = postischemic/hypoxic treatment; Sun and Alkon 2008; cited from earlier work
[4] = clinical trials, Varterasian et al. 2000; cited from earlier work
human neprilysin [5] = assay: Membrane localization of neprilysin in SH+hNEP cells (biotinylation, Western blot); format: cell-based; details: 1 nM
Description: Protocols: SHSYSY cells overexpressing human neprilysin (SH+hNEP cells) were incubated with 1 μM oligomeric Aβ(1-42) for 4 hours in the absence or presence of bryostatin (Bryo, 1 nM). Some cells were pre-treated with Ro 32-0432 (Ro, 2 μM, a PKC inhibitor) for 30 min and then treated with Bryo. Cell surface-located proteins were then biotinylated and extracted using streptavidin beads, followed by immunoprecipitation using a neprilysin antibody Immunoprecipitates were subjected to Western blot analysis using neprilysin antibody (Mean+SEM of three independent experiments, **P<0.01, Aβ compared with untreated; #P<0.01, Ro+Bryo compared with Bryo). Results are shown below in FIG. 17.
Protocol: After SH+hNEP cells were untreated or treated with bryostatin (Bryo, 1 nM), or pre-treated with PKC inhibitor Ro 32-0432 (Ro, 2 μM) for 30 min and then treated with Bryo for 1 hour, cell surface located proteins were biotinylated and pulled down using streptavidin beads, followed by immunoprecipitation using a neprilysin antibody. […] Cells were then lysed and neprilysin activity was measured. […] Further incubation with leucine aminopeptidases released free 4-methoxy-2-naphthylamide that was measured fluorometrically at an emission of 425 nm. […]

CCC/C=C/C=C/C(=O)O[C@H]1/C(=C/C(=O)OC)C[C@H]2C[C@H]([C@@H](C)O)OC(=O)C[C@H](O)C[C@@H]3C[C@H](OC(C)=O)C(C)(C)[C@](O)(C[C@@H]4C/C(=C/C(=O)OC)C[C@H](/C=C/C(C)(C)[C@]1(O)O2)O4)O3 [Bryostatin, bryostatin-1]
losses of postsynaptic dendritic spines [1]: rescued the losses of
losses of presynaptic vesicles within presynaptic axonal boutons [1]: rescued the losses of
losses of synapses [1]: rescued the losses of synapses
neprilysin activity (human neprilysin [2]): increases neprilysin activity
learning experience and memory after cerebral ischemia (cerebral ischemia rats): rescues learning experience and memory
ischemia-induced deficits in synaptogenesis, neurotrophic activity, and spatial learning and memory [3]: effectively rescued ischemia-induced deficits in synaptogenesis, neurotrophic activity, and spatial learning and memory
tumor growth promotion [4]: does not promote tumor growth
membrane localization of neprilysin protein inhibited by Aβ (human neprilysin [5]; 1 μM oligomeric Aβ(1-42), 4 hours): recovers membrane localization of neprilysin protein inhibited by Aβ
neprilysin membrane localization (human neprilysin [5]; 1 hour, without Aβ): enhances neprilysin membrane localization

Reference: US20160025704A1, “METHODS FOR IDENTIFYING NEUROPROTECTIVE PKC ACTIVATORS” (priority 2013, published 2016)
